# From US6133299A, “Methods for treating neurodegenerative diseases and disorders using N-(2,6-disubstituted aromatic)-N'-pyridinyl ureas and other anticonvulsant compounds” (Warner-Lambert Company, priority 1993, dated 2000)
# What was measured:
# [1] = tested on: Neuronal/Glial Cortical Cultures; assay: Hypoxia-induced lactate dehydrogenase release (cell injury) in neuronal/glial cortical cultures; type: cell-based, rat (Sprague Dawley); conditions: Rattus norvegicus, read-out: % Inh (percent inhibition of the release of lactate dehydrogenase in comparison to hypoxic control cultures)
# Protocol: An assay was conducted to compare the inhibitory action of various compounds which are the subject of the present invention. The assay measured the oxygen deprivation-induced neuronal cell death from various cortical cultures. Lactate dehydrogenase (LDH) is a cytosolic enzyme that is only present in the extracellular medium if cell membranes rupture, indicating cell death. Therefore, LDH release into the culture medium is a convenient assay of cell death. The results of Table 3 indicate that each of the compounds tested decreased neuronal cell death from hypoxia in vitro.
# The uteri of Sprague Dawley rats in their 18th day of fetal gestation were removed under halothane anesthesia and placed in a chilled bath of magnesium and calcium-free Hank's balanced salt solution (HBSS). Cortical brain hemispheres were removed from individual fetuses and digested in 0.1% trypsin in HBSS for 15 minutes at room temperature. Digested tissue was washed three times with HBSS then dissociated into a single cell suspension by trituration with a glass pipette. […] One hundred microliters of this cell suspension was pipetted into individual wells of 96-well tissue culture plates previously coated with poly-L-lysine, then stored in a humidified incubator (37° C., 3% CO2). Glial cell growth was stopped by the addition of 100 μL of 45% DME, 45% HAM F12, and 10% Horse serum (10/0 DME/F12) containing 15 μg/mL of 5-fluoro-2-deoxyuridine and 35 μg/mL of uridine, 3 days after the initial plating. Cultures were fed at 2- or 3-day intervals thereafter by replacing 100 μL of spent medium with an identical volume of fresh 10/0 DME/F12.
# Sixteen-day-old cultures were prepared for experiments by removing growth medium from each culture well and rinsing once with 250 μL of Mg^++ -free HBSS containing 1.8 mM Ca^++ and 1 g/L D-glucose (0 Mg-HBSS) Control and test agent solutions, prepared using 0 Mg-HBSS medium, were dispensed in 50 μL aliquots into individual test wells (Total volume/well=50 μL). All liquid medium preparations to this point were equilibrated with […], 5% CO2. Plates were placed into a 37° C., humidified, triple-gas incubator with O2 and CO2 levels maintained at 1% and 10%, respectively. Plates were removed after 7.5 hours of oxygen deprivation and restored to normoxic conditions (20% O2 /10% CO2, 37° C.) following a 50 μL addition to each well of appropriate control or test agent solutions containing 1.8 mM Ca^++, 1.6 mM Mg^++, and 7.0 g/L D-glucose. Final medium concentrations of 1.8 mM Ca^++, 0.8 mM Mg^++, and 4 g/L D-glucose were present during the reoxygenation period.
# Medium concentrations of lactate dehydrogenase (LDH), a cytosolic enzyme normally retained by cells but released upon cell death, were determined for each well following an additional 16.5-hour normoxic exposure period. Individual 25 μL medium specimens were collected from each well and placed into wells of a clean 96-well microtiter plate containing 225 μL of 0.1 M KPO4 buffer (pH=7.5 at 25° C.) and 30 μg NADH (reduced […] adenine dinucleotide). After 10-minute incubation at 37° C., 30 μL of 2.4 mM sodium pyruvate was added to each well and plates were gently shaken to mix solution. Plates were immediately placed into a Multiscan MCC/340 plate reader and scanned for […] (excitation at 340 nm) for 1 minute at 5-second intervals. A kinetic analysis of the change in medium absorbance resulting from shifts in NADH concentrations was used, in combination with factors to correct for temperature, light path, and volume adjustments to determine medium LDH concentrations (IU/mL). Normoxic control baseline LDH levels were subtracted from both hypoxic control and test agent values prior to determining test agent effectiveness in preventing oxygen deprivation-induced injury.
# [2] = tested on: neuroprotective capabilities; assay: Neuroprotective capabilities in vitro (general statement); type: cell-based
# [3] = tested on: voltage-dependent sodium channels; conditions: cited from earlier work
# [4] = tested on: Hippocampal Slices; assay: Recovery of synaptic activity (EPSP) in hippocampal slices after hypoxia-hypoglycemia (Example 4); type: cell-based, rat (male Wistar)
# Protocol: Young male Wistar rats (150 to 250 g) were anesthetized with ketamine (200 mg/kg IP) and ether and were perfused transcardially with cold, oxygenated, low sodium-containing physiological buffer solution (252 mM sucrose, 3.5 mM KCl, 1.0 mM MgSO4, 20 mM CaC1, 26 mM NaHCO3, 1.25 mM NaH2 PO4, and 10 mM glucose) with 50 μM ketamine added. Brains were removed and hippocampi carefully excised. Hippocampi were sliced transversely at 450 μm and transferred into cold (4° C.) low-sodium buffer solution gassed with 95% O2, 5% CO2 at 31° C. After 45 minutes slices were transferred to oxygenated normal physiological solution (126 mM NaCl, 3.5 mM KCl, 1.0 mM MgSO4, 2.0 mM CaCl2, 20 mM NaHCO3, 1.25 mM NaH2 PO4, and 10 mM glucose) at 31° C. for at least 1 hour before experiments began. After preincubation, slices were transferred to a heated (36° C.), gassed incubation chamber where they were continuously superfused with gassed normal physiological solution. Evoked extracellular synaptic potentials (EPSPs) were obtained using glass micropipettes placed approximately 100 μm into the slice. Electrical stimulation was applied once per minute to the stratum radiatum by insulated paired nichrome wires (60 μm diameter). Stimuli consisted of 150 μA pulses lasting 0.4 msec. […] Data from a slice were used only if EPSP amplitude was greater than 2.0 mV before hypoxia-hypoglycemia.
# Evoked potentials were recorded and analyzed with a digital computer interface. Experiments were started by recording for several minutes under normal conditions (95% O2, 5% CO2, 10 mM glucose). Then drug was added to the superfusion solution (or normal solution was continued in control experiments). After 10 minutes of drug superfusion, hypoxia-hypoglycemia was induced by switching to superfusion solution containing added drug with low glucose (2 mM) that was equilibrated with 95% N2 and 5% CO2. At the same time the slice chamber gas was switched to 95% N2 and 5% CO2. Hypoxia-hypoglycemia was continued for 12 minutes. After 12 minutes, 95% O2 and 10 mM glucose were returned to the slices and the superfusing solution. Following 15 minutes of reoxygenation, the experiment was ended. EPSPs were considered recovered if they returned to at least half of their original amplitude. The percentage of slices with recovered EPSPs were calculated for each condition.
# This study was identical in design to Example 3 except that during the hypoxic period of 12 minutes, glucose was reduced from 10 mM to 2 mM rather than from 10 mM to zero as in Example 3.
compound,measurement,setting,value
"NC(=O)N1c2ccccc2C=Cc2ccccc21 [Carbamazepine, carbamazepine]",inhibition at 30 µM,[1],53%
same,inhibition at 100 µM,[1],95%
same,neuroprotective capabilities,[2],shown in vitro to have neuroprotective capabilities
same,action on voltage-dependent sodium channels,[3],more selective for sodium channels
same,Number Slices Recovered / Number Slices Tested (≥50% EPSP amplitude recovery after reoxygenation),[4]; 20 μM,2/9
same,Number Slices Recovered / Number Slices Tested (≥50% EPSP amplitude recovery after reoxygenation),[4]; 50 μM,4/10
"Nc1nnc(-c2cccc(Cl)c2Cl)c(N)n1 [Lamotrigine, lamotrigine]",inhibition at 30 µM,[1],68%
same,inhibition at 100 µM,[1],83%
same,neuroprotective capabilities,[2],shown in vitro to have neuroprotective capabilities
"O=C(Nc1ccncc1)Nc1c(Cl)cccc1Cl [N-(2,6-Dichlorophenyl)-N'-4-pyridinyl urea]",inhibition at 30 µM,[1],62%
same,inhibition at 100 µM,[1],88%
"Cc1cccc(C)c1NC(=O)Nc1ccncc1 [N-(2,6-dimethylphenyl)-N'-4-pyridinyl urea]",inhibition at 30 µM,[1],106%
same,inhibition at 100 µM,[1],81%
"COCCOC(=O)C1=C(C)NC(C)=C(C(=O)OC(C)C)C1c1cccc([N+](=O)[O-])c1 (centres unmarked) [Nimodipine, nimodipine]",concentration at which it interacts with sodium channels,[3],greater than 10 μM
same,prevention of ischemic damage / loss of EPSPs,[4]; 1 μM,failed to prevent loss of EPSPs
same,Number Slices Recovered / Number Slices Tested (≥50% EPSP amplitude recovery after reoxygenation),[4]; 1.0 μM,1/9
Cc1cccc(Cl)c1NC(=O)/C=C1\SCC(=O)N1C [ralitoline],neuroprotective capabilities,[2],shown in vitro to have neuroprotective capabilities
